A word on the EC50: it is the concentration at which the effect is half-maximal.

Read-outs that look alike come from different tables or passages of the source.

Assay [1] concerns C. parvum Iowa isolate. The experiment in a line: Immunofluorescence assay for C. parvum growth inhibition in HCT-8 cells. To be noted: read-out: C. parvum EC50 (95% CI). In kind it is cell-based, Cryptosporidium parvum. How it is done: Inhibition of C. parvum growth was measured as described previously ([20]). Oocysts were excysted by treatment with 10 mM hydrochloric acid (10 min at 37°C), followed by exposure to 2 mM sodium taurocholate (Sigma-Aldrich) in PBS for 10 min at 16°C. Excysted oocysts were then added to >95% confluent HCT-8 cell monolayers in 384-well plates at a concentration of 5,500 Iowa isolate oocysts per well. For C. parvum field isolates, the inoculum required to yield an infection level similar to that produced by 5,500 Iowa isolate oocysts per well was determined and was used for subsequent assays of parasite inhibition. Compounds were added just before or 3 h after infection, and assay plates were incubated for 48 h postinfection at 37°C under 5% CO2. Wells were then washed three times with PBS containing 111 mM D-galactose, fixed with 4% paraformaldehyde in PBS for 15 min at room temperature, permeabilized with 0.25% Triton X-100 for 10 min at 37°C, washed three times with PBS with 0.1% Tween 20, and blocked with 4% bovine serum albumin (BSA) in PBS for 2 h at 37°C or 4°C overnight. Parasitophorous vacuoles were stained with 1.33 μg/ml of fluorescein-labeled Vicia villosa lectin (Vector Laboratories) diluted in 1% BSA in PBS with 0.1% Tween 20 for 1 h at 37°C, followed by the addition of Hoechst 33258 (AnaSpec) at a final concentration of 0.09 mM diluted in water for another 15 min at 37°C. Wells were then washed five times with PBS containing 0.1% Tween 20. A Nikon Eclipse TE2000 epifluorescence microscope with an automated stage was programmed using NIS-Elements Advanced Research software (Nikon, USA) to focus on the center of each well and take a 3-by-3 composite image using an EXi Blue fluorescence microscopy camera (QImaging, Canada) with a 20× objective (numerical aperture, 0.45). Nucleus and parasite images were exported separately as .tif files and were analyzed using macros developed on the ImageJ platform (National Institutes of Health) ([20]). The only modification from the published macro used to count parasites was that the lower size threshold for parasites was decreased from 16.5 to 4 pixels (1 pixel = 0.65 μm). Graphs were plotted, and half-maximal effective concentration (EC50) and 90% effective concentration (EC90) values were calculated using GraphPad Prism software, version 6.01. For every C. parvum field isolate experiment, a dose-response experiment against the C. parvum Iowa isolate was performed simultaneously as a reference.

Assay [2] relates to C. parvum Iowa isolate. Kind of assay: NOD SCID gamma (NSG) mouse model of chronic cryptosporidiosis, fecal qPCR. In kind it is in vivo, NOD SCID gamma mice. Here is the method:
All NOD SCID gamma mouse studies were performed in compliance with animal care guidelines and were approved by the University of Vermont Institutional Animal Care and Use Committee. NOD SCID gamma mice with normal flora (NOD.Cg-Prkdc^scid Il2rg^tm1Wjl/SzJ) ([38]) were purchased from The Jackson Laboratory (Bar Harbor, ME, USA) and were housed for at least a week for acclimatization. At the age of 4 to 5 weeks, mice were infected with 10^5 C. parvum Iowa isolate oocysts. Fecal oocyst shedding is detected 6 days after infection using a quantitative PCR (qPCR assay), so treatment was started on day 7 after infection. Mice (4 per experimental group) were treated either orally (p.o.) with MMV665917 at 30 or 60 mg/kg BID, intraperitoneally (i.p.) with MMV665917 at 60 mg/kg BID, or p.o. with 1,000 mg/kg paromomycin BID. MMV665917 was suspended in DMSO, sonicated three times, for 30 s each time, to obtain a fine suspension, aliquoted, and stored at −80°C for <10 days. On the day of treatment, aliquots of MMV665917 diluted in DMSO were thawed, mixed well using a vortexer, diluted with 1% HPMC, sonicated as before (three times for 30 s each time), mixed well, and given to mice either p.o. or by i.p. injection. A final concentration of 5% DMSO was used in 100 μl of 1% HPMC per dose. For the additional Malaria Box compounds and compound variants tested, the doses were prepared in the same way, and the specific dosages tested are given in Table S3 in the supplemental material. Mice were treated for either 4 or 7 days, allowed to recover for a week, and then sacrificed. Oocyst shedding in feces was monitored throughout by qPCR, including time points while on treatment and while monitoring for relapsed infection following completion of treatment in Fig. 2A.

For the next assay, the system named is C. parvum. The experiment in a line: Parasite persistence (time-kill) assay in HCT-8 cells. Type of assay: cell-based, Cryptosporidium parvum. How it is done:
Excysted C. parvum oocysts were added to >90% confluent HCT-8 cells in 384-well plates. […] At ∼24 h (i.e., the time of compound addition) and at various time intervals thereafter, parasites were washed, fixed, permeabilized, stained, and imaged as for the C. parvum growth assay. For the extended-compound-exposure experiments, the medium and compound were replaced every 3 days. A separate 384-well plate was used for each time interval. Parasite numbers were normalized to host cell nucleus numbers and are expressed as the percentage of parasites per host cell nucleus. In order to fit parasite decay curves, the effect of drugs was isolated from expected changes in parasite numbers over time by expressing the number of parasites as the percentage of the number of parasites with the control, dimethyl sulfoxide (DMSO), for each time point. Exponential decay curves were fit using GraphPad Prism software, version 6.01, and curve validity was assessed using the replicates test.

Where [3] appears, read: Cryptosporidium parvum, HCT-8, Table S3, SAR of MMV665917.
Where [4] appears, read: Cryptosporidium parvum, HCT-8, Table S1, confirmed screening hits.
[5] abbreviates: dose 50 mg/kg, interval 12 h, duration 4 days.
The mark [6] stands for this setting: Table S1, confirmed screening hits.
The mark [7] stands for this setting: dose 100 mg/kg, interval 24 h, duration 7 days.

For `O=S(=O)(c1ccc(Oc2ccccc2)cc1)N1CCN(c2ccc3nncn3n2)CC1` [Compound D-79, O=S(N1CCN(C2=NN3C(C=C2)=NN=C3)CC1)(C4=CC=C(OC5=CC=CC=C5)C=C4)=O], the concentration giving a half-maximal response (EC50) in the assay on C. parvum Iowa isolate [1] (setting [3]) was determined as 12000 nM.
On the same count and under the same terms, in the case of `O=C(Nc1ccc(Cl)c(Cl)c1)N1CCN(c2nc3ccccc3[nH]2)CC1` [Compound D-80, O=C(N1CCN(C2=NC3=C(C=CC=C3)N2)CC1)NC4=CC=C(Cl)C(Cl)=C4] it was 17000 nM; in that of `O=C(Nc1ccc(Cl)c(Cl)c1)N1CCN(CCn2cccn2)CC1` [Compound D-81, O=C(N1CCN(CCN2N=CC=C2)CC1)NC3=CC=C(Cl)C(Cl)=C3], above 25000 nM.
On to `Cc1ccnc(NC(c2cccc(OCc3ccccc3)c2)c2ccc3cccnc3c2O)c1` (stereo not drawn) [MMV000720, Cc1ccnc(NC(c2cccc(OCc3ccccc3)c2)c4ccc5cccnc5c4O)c1], for which the EC50 in the assay on C. parvum Iowa isolate [1] (setting [4]) was 210 nM.
Take `Oc1c(CN2CCN(c3ccccc3F)CC2)cc(Br)c2cccnc12` [MMV000760, Oc1c(CN2CCN(CC2)c3ccccc3F)cc(Br)c4cccnc14]: the EC50 with C. parvum Iowa isolate [1] (setting [4]) was found to be 290 nM.
Regarding `CSc1ccccc1C(=O)Nc1nc(-c2ccccn2)cs1` [MMV001246, CSc1ccccc1C(=O)Nc2nc(cs2)c3ccccn3], in the assay with C. parvum Iowa isolate [1] (setting [4]), the EC50 was found to be 1800 nM. Besides, the NSG efficacy entry with C. parvum Iowa isolate [2] (setting [5]) is on record as “No”.
On to `c1ccc(CNc2nc(NC3CCCC3)nc3ccccc23)cc1` [MMV006169 v2, C1CCC(C1)Nc1nc(NCc2ccccc2)c2c(n1)cccc2], for which the NSG efficacy entry in the assay with C. parvum Iowa isolate [2] (setting [5]) is given as “No”.
The same measure, in the same setting: under `COc1ccc(Nc2nc(NCc3ccccc3Cl)c3ccccc3n2)cc1Cl` [MMV006169 v3, COc1ccc(cc1Cl)Nc1nc(NCc2ccccc2Cl)c2c(n1)cccc2] stands “No”.
As to `c1ccc(CNc2nc(Nc3ccccc3)nc3ccccc23)cc1` [MMV006169, C(Nc1nc(Nc2ccccc2)nc3ccccc13)c4ccccc4], the 50% effective concentration (EC50) in the assay with C. parvum Iowa isolate [1] (setting [6]) turned out to be 1500 nM. For the same compound, in the assay on C. parvum Iowa isolate [2] (setting [5]), the NSG efficacy entry is reported as “No”.
As to `Cc1cc(=O)oc2c1ccc1oc(C(=O)c3ccccc3)c(C)c12` [MMV006753, CC1=CC(=O)Oc2c1ccc3oc(C(=O)c4ccccc4)c(C)c23], in the assay on C. parvum Iowa isolate [1] (setting [4]), the EC50 was 250 nM.
On the same count and under the same terms, in the case of `O=C1c2ccc3c4c(ccc(c24)C(=O)N1CCCCO)C(=O)N(CCCCO)C3=O` [MMV009085, OCCCCN1C(=O)c2ccc3C(=O)N(CCCCO)C(=O)c4ccc(C1=O)c2c34] it was 2600 nM; in that of `COc1cccc(Nc2nc(NCCO)c3ccccc3n2)c1` [MMV011944, n1c(NCCO)c2c(cccc2)nc1Nc3cccc(OC)c3], 3500 nM.
For the compound `COc1ccc(C(=O)Nc2cc(C)nn2-c2nc3c(cnn3-c3cccc(C)c3)c(=O)[nH]2)c(OC)c1` [MMV403679 v1, c31c(cnn1-c2cc(ccc2)C)C(=O)NC(=N3)n4c(cc(n4)C)NC(=O)c5c(cc(cc5)OC)OC], in the assay with C. parvum Iowa isolate [2] (setting [7]), the NSG efficacy entry is recorded as “No”.
On the same count and under the same terms, under `Cc1cccc(-n2ncc3c(=O)[nH]c(-n4nc(C)cc4NC(=O)C4CC4)nc32)c1` [MMV403679 v2, c31c(cnn1-c2cc(ccc2)C)C(=O)NC(=N3)n4c(cc(n4)C)NC(=O)C5CC5] stands “No”; under `Cc1cccc(-n2ncc3c(=O)[nH]c(-n4nc(C)cc4NC(=O)C4CCCC4)nc32)c1` [MMV403679 v3, c31c(cnn1-c2cc(ccc2)C)C(=O)NC(=N3)n4c(cc(n4)C)NC(=O)C5CCCC5], “No”.
On the same count and under the same terms, in the case of `Cc1cc(NC(=O)c2cc3ccccc3o2)n(-c2nc3c(cnn3-c3ccccc3)c(=O)[nH]2)n1` [MMV403679 v4, c31c(cnn1-c2ccccc2)C(=O)NC(=N3)n4c(cc(n4)C)NC(=O)c5oc6c(c5)cccc6] it was “No”; in that of `Cc1cccc(-n2ncc3c(=O)[nH]c(-n4nc(C)cc4N)nc32)c1` [MMV403679 v5, c31c(cnn1-c2cc(ccc2)C)C(=O)NC(=N3)n4c(cc(n4)C)N], “No”.
`Cc1cccc(-n2ncc3c(=O)[nH]c(-n4nc(C)cc4NC(=O)c4cc5ccccc5o4)nc32)c1` [MMV403679, c1(c(cnn1c2cccc(C)c2)C(=O)N3)N=C3n4nc(C)cc4NC(=O)c5cc(cccc6)c6o5]: the EC50 with C. parvum Iowa isolate [1] (setting [6]) stood at 120 nM.
Consider `Oc1c(C(Nc2ccccn2)c2cccc(Oc3ccccc3)c2)ccc2cccnc12` (stereo not drawn) [MMV665814, Oc1c(ccc2cccnc12)C(Nc3ccccn3)c4cccc(Oc5ccccc5)c4], for which the EC50 in the assay on C. parvum Iowa isolate [1] (setting [4]) was determined as 590 nM. Moreover, in the assay on C. parvum Iowa isolate [2] (setting [5]), the NSG efficacy result was “No”.
In the case of `O=C(Nc1ccc(Cl)c(Cl)c1)Nc1ccc(Cl)c(Cl)c1` [MMV665852, Clc1ccc(NC(=O)Nc2ccc(Cl)c(Cl)c2)cc1Cl], the EC50 in the assay on C. parvum Iowa isolate [1] (setting [4]) came to 3400 nM.
Turning to `O=C(Nc1nc(-c2ccccn2)cs1)c1ccccc1Br` [MMV665909, Brc1ccccc1C(=O)Nc2nc(cs2)c3ccccn3], in the assay with C. parvum Iowa isolate [1] (setting [4]), the EC50 is 3300 nM. For the same compound, the NSG efficacy entry in the assay on C. parvum Iowa isolate [2] (setting [5]) is “No”.
On the same counts, the results for `CN(C)c1ccc(C(O)(c2ccc(N(C)C)cc2)c2ccc(N(C)C)cc2)cc1` [MMV665941, CN(C)c1ccc(cc1)C(O)(c2ccc(cc2)N(C)C)c3ccc(cc3)N(C)C] are 830 nM and “No”.
In the same order, the values of `COc1cccc(C(=O)NC(c2ccc(C)cc2)c2cc(Cl)c3cccnc3c2O)c1` (stereo not drawn) [MMV665969, COc1cccc(c1)C(=O)NC(c2ccc(C)cc2)c3cc(Cl)c4cccnc4c3O] are 54 nM and “No”.
For `COc1ccc(C(=O)NC(c2ccc(Cl)cc2Cl)c2cc(Cl)c3cccnc3c2O)cc1` (stereo not drawn) [MMV666054, COc1ccc(cc1)C(=O)NC(c2ccc(Cl)cc2Cl)c3cc(Cl)c4cccnc4c3O], the EC50 in the assay on C. parvum Iowa isolate [1] (setting [4]) was determined as 810 nM.
For `CC(=O)Oc1ccccc1C(=O)Nc1ncc([N+](=O)[O-])s1` [nitazoxanide], the “short-term efficacy on oocyst shedding in NSG mice” value with C. parvum Iowa isolate [2] (Fig. 2B, dose not given) is on record as “did not reduce oocyst shedding”. Moreover, in the assay with C. parvum, the “parasiticidal or parasitistatic for C. parvum” value was “parasitistatic”. Further, in the assay on C. parvum (highest nontoxic concentrations, added 24 h after infection), the parasite persistence entry is “parasites persist”.

For the origin of these results see paper PMC5913971, “A Novel Piperazine-Based Drug Lead for Cryptosporidiosis from the Medicines for Malaria Venture Open-Access Malaria Box” (Antimicrobial Agents and Chemotherapy, 2018).
